From patent publication US7888357B2, “Anti-inflammatory and protein kinase inhibitor compositions and related methods for downregulation of detrimental cellular responses and inhibition of cell death” (Northwestern University, priority 2001, dated 2011)
“Also recorded” adds a separate entry of the source. Like-named read-outs stand apart in the source and are kept apart here.

Tests used:
protein kinase C (PKC) = assay: Reconstituted enzyme assay, PKC; format: biochemical, rat
Protocol: (§1) [table] […] The rationale for using BV-2 cells in high throughput screening was the paucity of well-characterized human microglial cell lines, and the relevant activation responses and signaling pathways reflect those seen in human and rodent primary microglial cultures. Compounds were tested for their effects on NO accumulation in conditioned media of LPS-stimulated BV-2 cells by measurement of nitrite production by the Griess assay as a read-out for iNOS activity, as described previously. Stock solutions of compounds were prepared in dimethylsulfoxide (DMSO) or in water. When stock solutions were prepared in DMSO, control wells contained the same final concentration of DMSO as the compound-containing wells. […] Solutions of compounds for cell treatments were diluted to a 10× final concentration by dilution of stock solutions in αMEM media. […] Reconstituted enzyme assays were done as described s. The sources of protein kinases were: bovine heart PKA from Promega, rat brain PKC from Calbiochem, rat CaMKII from New England Biolabs, chicken gizzard MLCK prepared as described, and a p38 MAP kinase kit containing recombinant Xenopus p38-MAPK and its human substrate from Upstate Biotechnology. The catalytic domains of these protein kinases retain a high level of amino acid sequence identity across mammalian species, consistent with the lack of documented major differences across species for the in vitro catalytic activity of a given kinase.

[1] = target: T1, myosin light chain kinase (MLCK) (Gallus gallus, UniProt P11799); assay: Reconstituted enzyme assay, MLCK; format: biochemical, chicken
T1 construct: chicken gizzard MLCK prepared as described; from tissue; host or cells: chicken gizzard
Protocol: as §1

WT mice = assay: Endotoxin (LPS)-mediated acute lung injury; format: in vivo, mouse; conditions: 2.5 mg/kg IP 1 hour prior to LPS 10 mg/kg IP; 24 hours
Protocol: To confirm the specific role of EC MLCK in the reduced susceptibility of KO mice to endotoxin-mediated lung injury, a representative composition of this invention was used to determine whether pharmacologic inhibition of MLCK would also reduce LPS-induced lung injury. (See, examples 25-26, below.) WT mice were treated with 2.5 mg/kg of a representative MLCK inhibitor (e.g., cpd MW01-022AZ) 1 hour prior to administration of LPS.
Endotoxin-mediated lung injury. LPS (Sigma, St. Louis, Mo.) (10 mg/kg) was administered via intraperitoneal (ip) injection. Animals were allowed to recover for 24 hours prior to determination of lung injury. Control animals received an equivalent volume of sterile saline.
[drawing 161] are shown to be comparatively selective (using assay procedures and data analyses previously described) for inhibition of MLCK and related enzymes such as Rho kinase, and are bioavailable in various other animal models of disease. […] The stimulus in this example was IP injection of 10 mg/kg body weight of the bacterial endotoxin, lipopolysaccharide (LPS). The treatment with MW01-022AZ represents a clinically relevant dose of a kinase inhibitor therapeutic based on prior art with other kinases. Other compositions of this invention, having the structural relationships described and/or illustrated above, can also be employed.
Histologic analysis of lung injury after LPS exposure. […]

Wistar rats at P7 = assay: Hypoxia-ischemia induced brain damage, hemispheric weight; format: in vivo
Excerpt: Induction of hypoxia-ischemia in postnatal day seven (P7) rats. Hypoxic-ischemic injury in P7 rats was induced using the well-characterized method of unilateral carotid ligation followed by hypoxia. This age is approximately equivalent to the 34 week gestation human infant. Male and female Wistar rats at P7 were removed from the mother and anesthetized with halothane (3.5% for induction and 1.5% for maintenance) 50% oxygen-balance nitrogen delivered via facemask. The right common carotid artery was identified and gently separated from the vagus nerve. The vessel was ligated with double 6-0 silk sutures to ensure cessation of blood flow. […]
Animals were sacrificed by halothane overdose at 7 days after hypoxia. […] Differences in weight between the hypoxic-ischemic and control contralateral hemisphere were calculated for each animal using the formula: 100*(C−I)/C=% damage where I represents the weight of the ipsilateral and C the weight of the contralateral hemisphere.
Data Analysis. All data are expressed as mean±SEM. The degree of hypoxic-ischemic brain injury after treatment with drug or saline is expressed as the percentage of reduction in the tissue weight of the hemisphere ipsilateral to carotid ligation. This was calculated as a ratio of the right (ipsilateral, ischemic) to the left (contralateral, non-ischemic) hemispheric weights as described previously in the literature. […]

CaMKII = target: T2, CaMKII (Rattus norvegicus, UniProt P11275); assay: Reconstituted enzyme assay, CaMKII; format: biochemical; conditions: Table 6; read-out: Inhibition CAMKII
T2 construct: purchased New England Biolabs
Protocol: as §1

[2] = target: death associated protein kinase (DAPK) (Homo sapiens, UniProt P53355); assay: Enzyme assay, DAPK; format: biochemical; conditions: for IC50: Table 6, read-out: Inhibition DAPK
Protocol: Therefore, compound MW01-026Z was selected as a starting point for variations on component A (Table 6). […] However, none of the A variations appeared to improve the activity and selectivity profile of CompoundMW01-026Z. (For purposes of illustration, only, component G was maintained throughout as an acyl moiety, while component R2 was varied as shown. All such compositions are available using the synthetic techniques described herein. Enzyme assays were conducted per procedures described elsewhere herein.) A more comprehensive structure activity relationship is summarized in Table 7, below.
With reference to the compositions of Table 3 and the enzyme assay techniques described elsewhere herein, Table 7 provides structural activity relationships observed, in accordance with this invention.

[3] = Table 6, read-out: Inhibition KC
[4] = Table 6, read-out: Inhibition MLCK

T1 sequence (P11799 935-1906): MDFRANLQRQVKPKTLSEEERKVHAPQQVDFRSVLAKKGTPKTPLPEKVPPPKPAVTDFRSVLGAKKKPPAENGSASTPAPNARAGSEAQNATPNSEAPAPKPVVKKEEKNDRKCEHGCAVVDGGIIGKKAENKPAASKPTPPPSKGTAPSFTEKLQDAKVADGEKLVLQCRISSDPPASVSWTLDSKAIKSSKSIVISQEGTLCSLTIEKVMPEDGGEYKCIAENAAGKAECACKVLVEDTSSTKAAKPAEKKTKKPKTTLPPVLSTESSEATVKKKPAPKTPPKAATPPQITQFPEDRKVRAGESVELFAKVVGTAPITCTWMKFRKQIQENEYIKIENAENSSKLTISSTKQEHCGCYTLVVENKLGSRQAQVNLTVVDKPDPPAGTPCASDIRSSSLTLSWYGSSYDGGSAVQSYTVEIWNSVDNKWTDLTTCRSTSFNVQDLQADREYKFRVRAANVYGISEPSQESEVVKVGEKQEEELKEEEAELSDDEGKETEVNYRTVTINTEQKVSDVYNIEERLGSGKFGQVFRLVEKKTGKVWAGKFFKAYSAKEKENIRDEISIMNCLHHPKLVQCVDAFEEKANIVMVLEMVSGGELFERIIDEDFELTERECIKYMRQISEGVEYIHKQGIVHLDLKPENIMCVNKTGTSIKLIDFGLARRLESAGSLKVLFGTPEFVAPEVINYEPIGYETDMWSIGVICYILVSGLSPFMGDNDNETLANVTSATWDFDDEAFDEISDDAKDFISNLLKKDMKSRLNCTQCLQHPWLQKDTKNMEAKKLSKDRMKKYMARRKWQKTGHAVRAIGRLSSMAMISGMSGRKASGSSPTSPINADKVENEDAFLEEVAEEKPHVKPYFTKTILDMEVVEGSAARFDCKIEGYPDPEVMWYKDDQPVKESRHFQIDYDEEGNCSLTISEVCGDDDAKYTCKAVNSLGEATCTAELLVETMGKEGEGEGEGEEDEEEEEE
death associated protein kinase (DAPK), sequence (P53355 whole entry, species assumed): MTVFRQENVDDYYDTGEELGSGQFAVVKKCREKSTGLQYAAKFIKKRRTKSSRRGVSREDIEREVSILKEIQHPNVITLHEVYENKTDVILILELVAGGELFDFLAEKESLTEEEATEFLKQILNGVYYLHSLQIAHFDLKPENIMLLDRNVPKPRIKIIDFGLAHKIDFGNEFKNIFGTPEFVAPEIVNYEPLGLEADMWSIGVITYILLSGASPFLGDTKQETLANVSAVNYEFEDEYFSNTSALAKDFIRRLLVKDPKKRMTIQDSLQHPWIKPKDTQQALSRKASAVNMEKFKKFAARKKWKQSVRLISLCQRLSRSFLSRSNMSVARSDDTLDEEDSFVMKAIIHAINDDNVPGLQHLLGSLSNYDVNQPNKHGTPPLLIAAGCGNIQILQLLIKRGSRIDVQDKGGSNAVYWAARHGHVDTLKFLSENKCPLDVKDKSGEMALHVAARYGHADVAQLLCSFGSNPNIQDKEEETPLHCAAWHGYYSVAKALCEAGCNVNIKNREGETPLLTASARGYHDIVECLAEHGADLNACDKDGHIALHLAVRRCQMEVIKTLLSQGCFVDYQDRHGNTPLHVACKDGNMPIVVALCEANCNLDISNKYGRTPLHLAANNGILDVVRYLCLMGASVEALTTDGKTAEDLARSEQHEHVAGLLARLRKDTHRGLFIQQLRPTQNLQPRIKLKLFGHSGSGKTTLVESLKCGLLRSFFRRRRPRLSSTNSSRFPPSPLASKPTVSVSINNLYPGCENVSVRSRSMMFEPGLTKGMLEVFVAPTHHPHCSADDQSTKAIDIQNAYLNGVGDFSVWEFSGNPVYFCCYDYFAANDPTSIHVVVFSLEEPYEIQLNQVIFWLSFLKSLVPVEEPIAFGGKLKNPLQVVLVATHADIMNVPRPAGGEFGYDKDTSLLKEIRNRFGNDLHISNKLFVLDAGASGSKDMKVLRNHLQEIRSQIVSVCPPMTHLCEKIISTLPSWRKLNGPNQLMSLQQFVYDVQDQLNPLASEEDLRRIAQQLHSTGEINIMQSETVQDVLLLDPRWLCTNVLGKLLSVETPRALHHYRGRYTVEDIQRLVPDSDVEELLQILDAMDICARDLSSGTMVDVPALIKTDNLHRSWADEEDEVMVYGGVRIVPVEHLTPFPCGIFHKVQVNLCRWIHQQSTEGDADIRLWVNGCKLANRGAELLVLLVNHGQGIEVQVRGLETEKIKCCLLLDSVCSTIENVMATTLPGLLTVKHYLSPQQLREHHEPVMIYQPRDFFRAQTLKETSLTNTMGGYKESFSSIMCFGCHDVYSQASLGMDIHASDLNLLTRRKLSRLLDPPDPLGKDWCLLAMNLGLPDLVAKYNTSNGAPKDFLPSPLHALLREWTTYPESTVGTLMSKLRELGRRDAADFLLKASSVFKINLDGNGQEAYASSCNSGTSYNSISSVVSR
T2 sequence (P11275 1-325 limits assumed): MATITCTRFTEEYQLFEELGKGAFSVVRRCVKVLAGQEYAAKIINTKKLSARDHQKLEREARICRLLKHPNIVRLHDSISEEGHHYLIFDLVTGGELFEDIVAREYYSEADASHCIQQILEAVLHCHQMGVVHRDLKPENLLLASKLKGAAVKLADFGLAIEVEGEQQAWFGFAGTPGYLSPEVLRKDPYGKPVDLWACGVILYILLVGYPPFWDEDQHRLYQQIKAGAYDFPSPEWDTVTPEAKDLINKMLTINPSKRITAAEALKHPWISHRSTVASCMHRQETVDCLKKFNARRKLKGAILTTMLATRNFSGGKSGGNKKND

IC50 (protein kinase C (PKC); [3])	IC50 [1, 4]	SMILES	IC50 (CaMKII)	IC50 [2]	further results
		COc1ccc(S(=O)(=O)N(CCO)c2ccccc2CN(C)C/C=C/c2ccc(Cl)cc2)cc1 [Compound 5, KN93, reference compound]			IC50 (protein kinase C (PKC); γ-[32P]-ATP, synthetic peptide substrate, read-out: IC50 PKC): > 100 µM; IC50 ([1]; γ-[32P]-ATP, synthetic peptide substrate, mean ± SEM, read-out: IC50 MLCK): 9.8 ± 0.7 µM
		N=c1ccc(Cl)nn1CCCCCCCCCCC(=O)Nc1ccc(-c2ccccc2)nn1 [MW01-022AZ]			LPS-induced lung injury (histology) (WT mice): no evidence of lung injury; also recorded: close to normal
50 to 100 µM	< 20 µM	N=c1cc2c(nn1CCCCCCCCCCC(=O)Nc1cc3c(nn1)-c1ccccc1CC3)-c1ccccc1CC2 [MW01-055V]		50 to 100 µM	
20 to 50 µM	> 100 µM	N=c1ccc(-c2ccccc2)nn1CCCCCCCCCCC(=O)Nc1ccc(-c2ccccc2)nn1 [MW01-125AZ]	> 100 µM	20 to 50 µM	

SMILES	IC50 (protein kinase C (PKC); [3])	IC50 [1, 4]	IC50 (CaMKII)	IC50 [2]	further results
N=c1cc2c(nn1CCCCCCCCCCC(=O)Nc1ccc(-c3ccccc3)nn1)-c1ccccc1CC2 [MW01-026Z]	> 100 µM	20 to 50 µM	> 100 µM	< 20 µM	percent weight loss in the ischemic hemisphere compared to the contralateral hemisphere (Wistar rats at P7; 5 mg/kg IP 1 hour after carotid ligation, 7 day recovery to P14, mean±SEM, n=7): 8.2±5.5%; mortality (Wistar rats at P7; 5 mg/kg IP, versus vehicle group): no differences in mortality; DAPK inhibitory activity ([2]; comparison among compounds): most potent DAPK inhibitor
